Ten compounds from ChEMBL document CHEMBL4431372, “Optimization of a Fragment-Based Screening Hit toward Potent DOT1L Inhibitors Interacting in an Induced Binding Pocket” (ACS Med Chem Lett, 2016) can be followed below.

In general, IC50 refers to the concentration that inhibits the measured activity by half. As usually defined, the Kd is the equilibrium constant for the complex coming apart.

The target of the first experiment is T1, Histone-lysine N-methyltransferase, H3 lysine-79 specific (Homo sapiens, UniProt Q8TEK3). The experiment in a line: Inhibition of human DOTL1 (2 to 416 residues)-mediated methylation of nucleosome preincubated for 30 mins followed by addition of S-[methyl-3H-] adenosyl-L-methionine and nucleosome measured after 180 mins by scintillation proximity assay.
T1 sequence (Q8TEK3 whole entry, the tested form may be a part): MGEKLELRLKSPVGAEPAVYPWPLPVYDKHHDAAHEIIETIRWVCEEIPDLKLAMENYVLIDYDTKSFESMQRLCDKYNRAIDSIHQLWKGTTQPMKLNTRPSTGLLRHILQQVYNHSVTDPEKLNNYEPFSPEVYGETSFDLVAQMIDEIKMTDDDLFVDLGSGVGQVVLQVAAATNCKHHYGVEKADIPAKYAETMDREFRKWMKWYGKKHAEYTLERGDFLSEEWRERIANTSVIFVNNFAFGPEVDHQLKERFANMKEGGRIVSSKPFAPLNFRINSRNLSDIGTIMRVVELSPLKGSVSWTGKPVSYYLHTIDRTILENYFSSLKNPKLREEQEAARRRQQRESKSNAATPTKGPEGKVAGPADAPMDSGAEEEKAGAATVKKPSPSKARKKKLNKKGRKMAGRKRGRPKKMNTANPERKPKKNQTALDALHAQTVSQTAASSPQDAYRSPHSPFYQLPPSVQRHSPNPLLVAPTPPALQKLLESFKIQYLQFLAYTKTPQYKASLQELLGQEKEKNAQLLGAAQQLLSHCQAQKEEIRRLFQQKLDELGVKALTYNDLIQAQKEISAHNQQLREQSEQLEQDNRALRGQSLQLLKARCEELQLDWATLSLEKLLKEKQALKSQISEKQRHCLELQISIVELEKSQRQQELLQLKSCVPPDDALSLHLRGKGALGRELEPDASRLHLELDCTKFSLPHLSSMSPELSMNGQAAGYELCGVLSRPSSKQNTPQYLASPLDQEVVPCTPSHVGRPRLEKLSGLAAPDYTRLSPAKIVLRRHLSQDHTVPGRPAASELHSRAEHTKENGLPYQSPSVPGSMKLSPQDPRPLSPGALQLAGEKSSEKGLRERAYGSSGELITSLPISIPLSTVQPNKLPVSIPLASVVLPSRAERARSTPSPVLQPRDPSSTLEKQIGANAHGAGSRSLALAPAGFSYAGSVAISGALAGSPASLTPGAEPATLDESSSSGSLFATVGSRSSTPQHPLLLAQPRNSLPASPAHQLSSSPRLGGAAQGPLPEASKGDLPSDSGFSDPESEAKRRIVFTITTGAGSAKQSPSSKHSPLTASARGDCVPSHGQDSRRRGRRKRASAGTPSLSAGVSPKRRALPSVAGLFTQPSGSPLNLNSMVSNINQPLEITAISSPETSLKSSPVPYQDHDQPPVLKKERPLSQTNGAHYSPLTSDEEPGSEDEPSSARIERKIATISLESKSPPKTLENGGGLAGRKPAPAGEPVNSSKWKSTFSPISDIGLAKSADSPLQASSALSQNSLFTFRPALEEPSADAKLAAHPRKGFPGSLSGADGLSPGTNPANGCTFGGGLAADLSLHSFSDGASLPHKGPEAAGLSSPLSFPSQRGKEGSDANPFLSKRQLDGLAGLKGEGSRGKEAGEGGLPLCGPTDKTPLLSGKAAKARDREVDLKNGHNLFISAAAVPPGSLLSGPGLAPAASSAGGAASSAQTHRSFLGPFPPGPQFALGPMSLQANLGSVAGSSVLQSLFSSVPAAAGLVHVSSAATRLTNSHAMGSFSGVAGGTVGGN
The compound `Nc1ncnc2ccc(N(CC#CC(O)c3nccn3CCO)c3c(Cl)cccc3Cl)cc12` (stereo unspecified) registered a 50% inhibitory concentration (IC50) of 14 nM.

Compound `C#CCN(c1ccc2ncnc(N)c2c1)c1c(Cl)cccc1Cl` had an IC50 of 920 nM. Compound `CC(=O)Nc1cncc(-c2cc(C(=O)c3c(Cl)cccc3Cl)c[nH]2)c1` had an IC50 of 4300 nM. `Cn1cnc2ccc(N(CC#Cc3cccnc3)c3c(Cl)cccc3Cl)cc2c1=O` had an IC50 of 840 nM.

As for `Cc1ncc(C#CCN(c2ccc3ncn(C)c(=O)c3c2)c2c(Cl)cccc2Cl)cn1`, the IC50 is 89 nM.

`COc1ccnc2ccc(N(C)c3c(Cl)cccc3Cl)cc12`: the IC50 turned out to be 39000 nM. The same measure, in the same setting: under `Cc1ccc(C#CCN(c2ccc3ncnc(N)c3c2)c2c(Cl)cccc2Cl)nc1` stands 47 nM; under `CN(c1ccc2ncccc2c1)c1c(Cl)cccc1Cl`, 98000 nM. For the compound `O=C(c1ccc2ncccc2c1)c1c(Cl)cccc1Cl`, the 50% inhibitory concentration (IC50) is 139000 nM.

`CNC(=O)c1cc(C(=O)c2c(Cl)cccc2Cl)c[nH]1` gave an IC50 of 320000 nM.

Another experiment has as its target T1, Histone-lysine N-methyltransferase, H3 lysine-79 specific. Put plainly: Binding affinity to biotinylated Avi tagged human DoT1L (2 to 416 residues) by SPR analysis. In general terms: In SPR one partner is held on a chip, and binding of the other changes the refractive index at the surface.
With `CNC(=O)c1cc(C(=O)c2c(Cl)cccc2Cl)c[nH]1`, the Kd was 50 µM.
